Results published in ChEMBL document CHEMBL5143537, “Quinazoline-based hydroxamic acid derivatives as dual histone methylation and deacetylation inhibitors for potential anticancer agents” (Bioorg Med Chem, 2022).
Activity calls are given as the source filed them. The rule behind the calls is not given here.

What was measured:
HepG2 [1] = assay: Induction of apoptosis in human HepG2 cells assessed as early apoptotic cells at 20 uM measured after 48 hrs by Annexin V-FITC/propidium iodide staining based flow cytometry (reference value: 6.87%); assay type: functional
HepG2 [2] = assay: Cell cycle arrest in human HepG2 cells assessed as accumulation at G2/M phase at 2.5 uM measured after 48 hrs by propidium iodide staining based flow cytometry (reference value: 12.37%); assay type: functional
HepG2 [3] = assay: Antiproliferative activity against human HepG2 cells measured after 72 hrs by MTT assay; assay type: functional, cell-based; settings: HepG2, 72 h
HepG2 [4] = assay: Cell cycle arrest in human HepG2 cells assessed as accumulation at G2/M phase at 10 uM measured after 48 hrs by propidium iodide staining based flow cytometry (reference value: 12.37%); assay type: functional
HepG2 [5] = assay: Induction of apoptosis in human HepG2 cells assessed as late apoptotic cells at 20 uM measured after 48 hrs by Annexin V-FITC/propidium iodide staining based flow cytometry (reference value: 4.55%); assay type: functional
A-431 = assay: Antiproliferative activity against human A-431 cells measured after 72 hrs by MTT assay; assay type: functional, cell-based; settings: A-431, 72 h
HepG2 [6] = assay: Induction of apoptosis in human HepG2 cells assessed as increase in cleaved PARP expression at 1.25 to 20 uM measured after 48 hrs by Western blot analysis; assay type: functional, cell-based; settings: dose 1.25-20 µM
HCT-116 = assay: Antiproliferative activity against human HCT-116 cells measured after 72 hrs by MTT assay; assay type: functional, cell-based; settings: HCT-116, 72 h
[7] = Metabolic stability in rat liver microsomes assessed as parent compound remaining at 1 uM measured after 5 mins by LC-MS/MS analysis; assay type: ADME, Microsome; settings: read-out: Stability
HepG2 [8] = assay: Induction of apoptosis in human HepG2 cells assessed as increase in cleaved caspase-3 expression at 1.25 to 20 uM measured after 48 hrs by Western blot analysis; assay type: functional, cell-based; settings: dose 1.25-20 µM
HepG2 [9] = assay: Induction of apoptosis in human HepG2 cells assessed as increase in cleaved caspase-7 expression at 1.25 to 20 uM measured after 48 hrs by Western blot analysis; assay type: functional, cell-based; settings: dose 1.25-20 µM
HepG2 [10] = assay: Induction of apoptosis in human HepG2 cells assessed as necrotic cells at 5 uM measured after 48 hrs by Annexin V-FITC/propidium iodide staining based flow cytometry (reference value: 0%); assay type: functional
HepG2 [11] = assay: Cell cycle arrest in human HepG2 cells assessed as increase in p21 expression measured after 24 hrs by Western blot analysis; assay type: functional, cell-based; settings: dose 1.25-20 µM, DDE = dose-dependent effect
HepG2 [12] = assay: Induction of apoptosis in human HepG2 cells assessed as late apoptotic cells at 1.25 uM measured after 48 hrs by Annexin V-FITC/propidium iodide staining based flow cytometry (reference value: 4.55%); assay type: functional
[13] = biological target: T1, Histone-lysine N-methyltransferase EHMT1 (Homo sapiens) (UniProt Q9H9B1); assay: Inhibition of GLP in human HepG2 cells assessed as reduction in H3K9Me2 expression at 1.25 to 20 uM measured after 24 hrs by Western blot analysis; assay type: cell-based; settings: dose 1.25-20 µM
T1 sequence (whole entry): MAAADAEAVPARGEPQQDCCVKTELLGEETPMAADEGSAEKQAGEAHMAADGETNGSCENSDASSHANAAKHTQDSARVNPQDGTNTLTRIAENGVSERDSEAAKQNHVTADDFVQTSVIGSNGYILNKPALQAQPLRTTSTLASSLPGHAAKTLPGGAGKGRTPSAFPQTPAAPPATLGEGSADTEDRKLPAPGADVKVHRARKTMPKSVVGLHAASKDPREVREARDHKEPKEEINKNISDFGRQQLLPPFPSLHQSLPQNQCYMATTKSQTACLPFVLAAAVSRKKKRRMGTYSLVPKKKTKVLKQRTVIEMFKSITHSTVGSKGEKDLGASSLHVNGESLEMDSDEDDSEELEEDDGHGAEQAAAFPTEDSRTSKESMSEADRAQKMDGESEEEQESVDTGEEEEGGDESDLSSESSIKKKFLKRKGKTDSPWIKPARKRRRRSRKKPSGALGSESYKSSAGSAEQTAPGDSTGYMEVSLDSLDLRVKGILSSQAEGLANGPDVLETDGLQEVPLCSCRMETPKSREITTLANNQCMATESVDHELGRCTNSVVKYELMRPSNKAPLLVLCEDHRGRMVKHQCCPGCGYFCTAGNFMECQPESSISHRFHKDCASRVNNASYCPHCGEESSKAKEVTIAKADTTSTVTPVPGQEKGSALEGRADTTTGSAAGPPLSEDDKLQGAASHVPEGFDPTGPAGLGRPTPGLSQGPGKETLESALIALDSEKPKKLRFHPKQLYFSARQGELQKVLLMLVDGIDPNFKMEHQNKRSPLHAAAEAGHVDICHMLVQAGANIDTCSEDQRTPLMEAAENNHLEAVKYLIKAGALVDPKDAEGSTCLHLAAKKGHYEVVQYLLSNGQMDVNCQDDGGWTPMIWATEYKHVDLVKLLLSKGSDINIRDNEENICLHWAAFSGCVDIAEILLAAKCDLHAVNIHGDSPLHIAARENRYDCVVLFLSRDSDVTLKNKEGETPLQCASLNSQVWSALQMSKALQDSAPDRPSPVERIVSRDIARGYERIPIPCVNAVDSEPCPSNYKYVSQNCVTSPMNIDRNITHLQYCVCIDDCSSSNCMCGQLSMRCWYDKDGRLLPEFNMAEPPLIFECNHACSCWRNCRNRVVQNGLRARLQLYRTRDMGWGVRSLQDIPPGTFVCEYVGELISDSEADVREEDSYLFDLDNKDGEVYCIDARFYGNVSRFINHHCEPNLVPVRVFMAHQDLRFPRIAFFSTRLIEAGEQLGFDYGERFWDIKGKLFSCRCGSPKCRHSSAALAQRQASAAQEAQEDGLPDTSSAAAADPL

HepG2 [14] = assay: Induction of apoptosis in human HepG2 cells assessed as necrotic cells at 10 uM measured after 48 hrs by Annexin V-FITC/propidium iodide staining based flow cytometry (reference value: 0%); assay type: functional
HepG2 [15] = assay: Induction of apoptosis in human HepG2 cells assessed as viable cells at 5 uM measured after 48 hrs by Annexin V-FITC/propidium iodide staining based flow cytometry (reference value: 88.58%); assay type: functional; settings: read-out: Activity
HepG2 [16] = assay: Induction of apoptosis in human HepG2 cells assessed as late apoptotic cells at 5 uM measured after 48 hrs by Annexin V-FITC/propidium iodide staining based flow cytometry (reference value: 4.55%); assay type: functional
HepG2 [17] = assay: Induction of apoptosis in human HepG2 cells assessed as early apoptotic cells at 10 uM measured after 48 hrs by Annexin V-FITC/propidium iodide staining based flow cytometry (reference value: 6.87%); assay type: functional

In the case of `COc1cc2nc(N3CCN(CCCCCC(=O)NO)CC3)nc(NC3CCN(Cc4ccccc4)CC3)c2cc1OC`, the Activity (HepG2 [1]) is reported as 49.75%, the Activity (HepG2 [2]) is reported as 13.29% and the IC50 (HepG2 [3]) is reported as 2740 nM. The Activity (HepG2 [4]) was 15.52%, the Activity (HepG2 [5]) was 17.12% and the IC50 (A-431) was 2380 nM. The Activity (HepG2 [6]) was “Active”, the IC50 (HCT-116) was 11000 nM and the remaining at 5 min, 1 µM [7] was 81.1%. For the same molecule, the Activity (HepG2 [8]) was “Active”, the Activity (HepG2 [9]) was “Active” and the Activity (HepG2 [10]) was 0%. The Activity (HepG2 [11]) was “Dde”, the Activity (HepG2 [12]) was 2.68% and the inhibition [13] was “Active”. The Activity (HepG2 [14]) was 0%, the viability at 5 µM (HepG2 [15]) was 87.3% and the Activity (HepG2 [16]) was 4.14%. It also gave an Activity (HepG2 [17]) of 16.02%.
